Common to all, as to test: NCI-60 cell line screen, 48 h
Assay [1] relates to BT-549 breast.
Assay [2] relates to HCT-116 colon.
Assay [3] relates to HS 578T breast.
The test system of assay [4] is K-562 leukemia.
Assay [5] concerns KM12 colon.
Assay [6] has as its system LOX IMVI melanoma.
In assay [7] the test system is MOLT-4 leukemia.
Assay [8] relates to NCI-H522 lung.
Assay [9] relates to OVCAR-4 ovarian.
Assay [10] deals with SF-295 CNS.

Where “and” joins values, the source holds several entries; their conditions need not be identical. Identical values can stand only once.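 Protocol summary: plate cells (96-well), add compound at 5 concentrations, incubate 48 h, interpolate endpoints linearly. Abbreviation: GI50, concentration required for 50% inhibition of growth. TGI: total growth inhibition.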

For the compound `C#Cc1cccc(NC(=O)C2CCCCN2C(=O)CCl)c1` (stereo unspecified), the GI50 in assay [1] was 12.5 µM; in assay [2], 13.7 µM; in [3], 18.4 µM; in [4], 15.3 µM; in assay [5], 37.1 µM; in [6], 7.6 µM. For the same compound, the GI50 in assay [7] is 12 µM; in [8], 8.72 µM; in assay [9] it was 8.77 µM; in [10], above 82.5 µM. The TGI in [1] was 27.2 µM; in [2], 43.2 µM; in assay [3], 76.4 µM; in assay [4], above 82.5 µM; in assay [5], above 82.5 µM; in [6] it was 18.6 µM. Further, the TGI is 52.9 µM in assay [7], 24.4 µM in assay [8], 24.5 µM in assay [9] and above 82.5 µM in assay [10].
On to `O=C(Nc1ccc([N+](=O)[O-])cc1Cl)c1cc(Cl)ccc1O`, for which the GI50 was 0.105 µM and 0.156 µM in assay [1]; 0.121 µM and 0.172 µM in assay [2]; 0.133 µM and 0.207 µM in assay [3]; 0.12 µM and 0.21 µM in [4]; 0.169 µM and 0.303 µM in assay [5]; 0.162 µM and 0.244 µM in [6]. Moreover, the GI50 in [7] is 0.121 µM and 0.273 µM; in assay [8], 0.0764 µM and 0.171 µM; in assay [9], 0.156 µM and 0.259 µM; in assay [10], 0.112 µM and 0.207 µM. Moreover, the TGI in assay [1] was 0.344 µM and 0.647 µM; in assay [2], 0.397 µM and 0.483 µM; in [5], 0.608 µM and 1.2 µM; in assay [7], 0.374 µM and 1.03 µM; in assay [9], 13.4 µM and > 100 µM; in assay [10] it was 0.308 µM and 0.609 µM.
In the case of `N/C(=N/O)NOCCC(N)C(=O)O` (stereo unspecified), the GI50 in assay [1], in assay [2], in assay [3], in [4], in assay [5] and in assay [6] was above 100 µM throughout. Further, the GI50 in assay [7], in [8], in [9] and in assay [10] was above 100 µM each time. Also, the TGI in [1], in assay [2], in assay [3], in [4], in assay [5] and in assay [6] was above 100 µM throughout. Besides, the TGI in [7], in assay [8], in assay [9] and in assay [10] was above 100 µM throughout.
With `NC(=O)C1CCCN1Cc1ccc2c(c1)OCO2` (stereo unspecified), the TGI in assay [1], in assay [2], in assay [3], in [4], in [5] and in assay [6] was above 100 µM in each case. In addition, the TGI in assay [7], in assay [8], in assay [9] and in [10] was above 100 µM in each case.
Turning to `O=C(Nc1n[nH]c2cc(-c3ccc(F)cc3)ccc12)C1CC1`, the GI50 in assay [1] was 12.4 µM; in assay [2], 8.89 µM; in assay [3], 10.7 µM; in assay [4], 3.69 µM; in assay [5], 4.11 µM; in assay [6], 10.7 µM. Besides, the GI50 in [7] is 10.4 µM; in assay [8] it was 4.92 µM; in assay [9], 9.87 µM; in assay [10] it was 9.07 µM. The TGI in [1], in assay [2], in assay [3], in assay [4], in [5] and in assay [6] was above 25 µM throughout. In addition, the TGI is above 25 µM in [7], above 21.1 µM in assay [8], above 25 µM in assay [9] and 24.6 µM in [10].
On to `COc1ccc(CC2OC3(CCCCC3)CC3CCCCN32)cc1` (stereo unspecified), for which the TGI in [1], in assay [2], in assay [3], in assay [4], in assay [5] and in assay [6] was above 100 µM throughout. Also, the TGI in [7], in assay [8], in assay [9] and in [10] was above 100 µM each time.
For `Cc1ccc(O)c(C(=O)/C=C/c2ccccc2)c1`, the TGI in assay [1], in assay [2], in [3], in [4], in [5] and in [6] was above 100 µM in each case. Moreover, the TGI in assay [7], in assay [8], in assay [9] and in assay [10] was above 100 µM in each case.
For `COc1ccc(/C=C2\CCC(C)(CN(C)C)C2=O)cc1Br` (stereo unspecified), the TGI in [1] was determined as 45.4 µM; in assay [2], 32.1 µM; in assay [3], 85.4 µM; in assay [4] it was 64.9 µM; in assay [5], 28.3 µM; in assay [6] it was 35.3 µM. Moreover, the TGI was 58 µM in assay [7], 32.8 µM in assay [8], 35.9 µM in [9] and 80.7 µM in assay [10].

For the origin of these results see PubChem BioAssay (NCI).
